According to patent publication US11732008B2, “Preparation of functional homocysteine residues in polypeptides and peptides” (The Regents of the University of California, priority 2016, dated 2023):

Key:
[1] = Cloud point temperature (Tcp) by transmittance while heating; assay type: physicochemical; conditions: for Tcp (° C.): polymer 3.0 mg/mL in H2O, heated 1° C./min, temperature of 50% transmittance at 500 nm, —a = no Tcp detected, fully soluble 20 to 80° C., NA^b = insoluble in H2O down to 5° C.
Method: (§1) FIGS. 7A and 7B show CD Spectra and heating curves of exemplary OEG-Hcy derivatives.
The incorporation of precise side-chain structural modifications, enabled systematic study of the effects of different functionalities on the properties of the materials. […] Cloud point temperatures (Tcp) were determined at 50% transmittance by monitoring solution transmittance as a function of temperature, and were used to approximate the equilibrium LCST values. Since chain length variation and polymer concentration are well known to affect Tcp values, all samples were identical in length, being prepared from the same stock of M60 (SEQ ID NO: 1).

[2] = Chain conformation / helicity by circular dichroism (CD) spectroscopy; assay type: physicochemical; conditions: 20° C.
Method: For M60 (SEQ ID NO: 1), no data are presented below 204 nm due to solvent absorption that prohibits data collection. 31 found to be 85% α-helical. All CD spectra recorded at 0.5 mg/ml, 20° C. Figure discloses “C^H60” as SEQ ID NO: 2.
as §1
Heating or cooling rate: 1° C./min, transmittance recorded at 500 nm. […] (label: 20° C.*).
All data were recorded in H2O at 0.5 mg/mL, 20° C. For 5b no data were recorded below 198 nm due to sulfoxide absorption.

## Poly(S-(3-(2-hydroxyethoxy)-2-hydroxypropyl)-L-homocysteine) [Sample 2a]
Solubility in water
  water solubility (in words): fully water soluble

## Poly(S-(3-(2-methoxyethoxy)-2-hydroxypropyl)-DL-homocysteine) [rac-2b]
Solubility in water
  water solubility (in words): fully water soluble

## Poly(S-(2-hydroxy-4,7-dioxaoctyl)-L-homocysteine sulfone) [Sample 5b]
[1]
  Tcp / LCST in water, present or not: neither polymer has a LCST
[2]; CD in water, 0.5 mg/mL
  chain conformation: α-helical conformation
  α-helical (%): 86%
Solubility in water
  water solubility (in words): good solubility

## Poly(S-(2-hydroxy-4,7-dioxaoctyl)-L-homocysteine sulfoxide) [Sample 5a]
[1]
  Tcp / LCST in water, present or not: neither polymer has a LCST
[2]; CD in water, 0.5 mg/mL
  chain conformation: disordered conformation
Solubility in water
  water solubility (in words): good solubility

## Poly(S-(3-(2-acetoxyethoxy)-2-hydroxypropyl)-L-homocysteine) [Sample 2c]
Solubility in water
  water solubility (in words): water insoluble

## Poly(S-(2-acetoxy-4,7,10,13-tetraoxatetradecyl)-L-homocysteine) [Sample 3a]
[1]
  Tcp (° C.): 39 °C

## Poly(L-methionine)60 [Sample M60, reference compound]
[2]; CD in THF, 0.5 mg/ml
  chain conformation: helical
Solubility in water
  water solubility (in words): water-insoluble

## Poly(S-(2-(((2-methoxyethoxy)carbonyl)oxy)-4,7,10,13-tetraoxatetradecyl)-L-homocysteine) [Sample 3b]
[1]
  Tcp (° C.): 41 °C
